The text below walks through data of ChEMBL document CHEMBL1201862, “PubChem BioAssay data set” (2004).

Some test systems named below: HCT-116; ACHN; DU-145; SK-OV-3; KM12; HT-29; LOX IMVI; OVCAR-8; OVCAR-4; MDA-MB-231; CAKI-1; HOP-62; SK-MEL-28; Malme-3M; NCI-H226; HCC 2998; MOLT-4; NCI-H522; HOP-92.
Common to all, as to assay: NCI-60 cell line screen, 48 h

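Method: 48-hour compound exposure of cells in 96-well plates, five concentrations, linear interpolation of endpoints. Here, GI50 denotes the concentration required for 50% inhibition of growth.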 Active and inactive are the calls of the source. Rule as the data show it: active = GI50 up to about 1.1 µM and inactive = higher.

For the compound `COc1nc2ncc([C@@H](OC(C)=O)[C@@H](COC(C)=O)OC(C)=O)nc2c(=O)[nH]1`, the GI50 in the assay with HCT-116, with ACHN, with DU-145, with SK-OV-3, in the assay on KM12 and with HT-29 was > 100 µM (inactive) each time. Further, the GI50 in the assay with LOX IMVI, with OVCAR-8, with OVCAR-4, with MDA-MB-231, in the assay on CAKI-1 and in the assay on HOP-62 was > 100 µM (inactive) throughout. Besides, the GI50 was > 100 µM (inactive) in the assay on SK-MEL-28, > 100 µM (inactive) in the assay on Malme-3M and 51.5 µM (inactive) in the assay on NCI-H226.
Regarding `N#C/C(=N/Nc1[nH]cnc1C(N)=O)C(=O)Nc1ccccc1`, the GI50 in the assay on HCT-116 is 14.3 µM (inactive); in the assay with ACHN it was 15.2 µM (inactive); in the assay with DU-145, 6.3 µM (inactive); in the assay with HCC 2998, 9.89 µM (inactive); with SK-OV-3, 4.66 µM (inactive); in the assay with KM12, 13.9 µM (inactive). Also, the GI50 in the assay on HT-29 was 48.6 µM (inactive); with MOLT-4 it was 4.88 µM (inactive); in the assay on OVCAR-8 it was 3.23 µM (inactive); in the assay on NCI-H522 it was 7.71 µM (inactive); in the assay with OVCAR-4, 14.6 µM (inactive); in the assay with MDA-MB-231 it was 32.3 µM (inactive). Besides, the GI50 is 6.18 µM (inactive) with HOP-62, 88.5 µM (inactive) in the assay with SK-MEL-28, 5.48 µM (inactive) in the assay with Malme-3M and 27 µM (inactive) in the assay on NCI-H226.
In the case of `CCNC12CCC(C1)C(C)(C)C2=O` (configuration not stated), the GI50 in the assay with HCT-116, in the assay with HOP-92, with ACHN, in the assay on DU-145, with HCC 2998 and in the assay with SK-OV-3 was > 100 µM (inactive) each time. Also, the GI50 with KM12, in the assay on LOX IMVI, in the assay with MOLT-4, with OVCAR-8, in the assay on OVCAR-4 and in the assay with CAKI-1 was > 100 µM (inactive) throughout. Further, the GI50 with HOP-62, in the assay on SK-MEL-28 and in the assay on NCI-H226 was > 100 µM (inactive) throughout.
As for `Cc1nn(-c2ccccc2)c(C)c1/C=N/N=C1\SCC(=O)N1c1ccccc1`, the GI50 in the assay with HCT-116 is 19.1 µM (inactive); in the assay with ACHN, 17.3 µM (inactive); in the assay with DU-145, 31.8 µM (inactive); in the assay on HCC 2998, 20.3 µM (inactive); in the assay on SK-OV-3, 29.8 µM (inactive); in the assay on KM12 it was 25 µM (inactive). Besides, the GI50 in the assay with HT-29 was 20.5 µM (inactive); in the assay on LOX IMVI it was 22.6 µM (inactive); in the assay on MOLT-4, 30.8 µM (inactive); with OVCAR-8, 21.7 µM (inactive); in the assay on OVCAR-4, 10.6 µM (inactive); in the assay on MDA-MB-231 it was 35 µM (inactive). Further, the GI50 in the assay with CAKI-1 was 19.4 µM (inactive); in the assay with HOP-62, 37.9 µM (inactive); in the assay on SK-MEL-28, 22.3 µM (inactive); in the assay on Malme-3M it was 21.2 µM (inactive); in the assay with NCI-H226, 23.6 µM (inactive).
In the case of `COc1ccc(C)cc1NC(=S)N/N=C/c1ccco1`, the GI50 with HCT-116 is 36.2 µM (inactive); in the assay on HOP-92, 64.6 µM (inactive); with ACHN, > 100 µM (inactive); in the assay with DU-145, > 100 µM (inactive); in the assay on HCC 2998, 36.5 µM (inactive); in the assay with SK-OV-3, > 100 µM (inactive). For the same compound, the GI50 was 18.9 µM (inactive) in the assay on KM12; 29 µM (inactive) with HT-29; 43.1 µM (inactive) with LOX IMVI; 31.7 µM (inactive) in the assay with MOLT-4; 37.3 µM (inactive) in the assay with OVCAR-8; 22.8 µM (inactive) in the assay on NCI-H522. For the same compound, the GI50 is 37.4 µM (inactive) in the assay with OVCAR-4; 55.2 µM (inactive) in the assay on CAKI-1; 48.3 µM (inactive) in the assay on HOP-62; 60.8 µM (inactive) in the assay on SK-MEL-28; 52.2 µM (inactive) with Malme-3M; 25.9 µM (inactive) in the assay on NCI-H226.
`N#C/C(C(=O)Nc1ccccc1)=C(/N)N1CCCCC1`: the GI50 with HCT-116, with HOP-92, in the assay on ACHN, with DU-145, in the assay with HCC 2998 and in the assay with SK-OV-3 was > 100 µM (inactive) throughout. The GI50 in the assay on KM12, in the assay on HT-29, in the assay on LOX IMVI, with MOLT-4, with OVCAR-8 and with CAKI-1 was > 100 µM (inactive) throughout. Further, the GI50 in the assay with HOP-62, with SK-MEL-28 and in the assay on NCI-H226 was > 100 µM (inactive) throughout.
As to `O=C(/C=C(\O)c1cc(-c2ccccc2)n(-c2ccccc2)n1)c1ccccc1`, the GI50 with HCT-116 was 5.64 µM (inactive); in the assay with ACHN, 3.35 µM (inactive); with DU-145, 3.61 µM (inactive); in the assay with HCC 2998, 18.2 µM (inactive); in the assay with SK-OV-3 it was 3.04 µM (inactive); with KM12 it was 4.48 µM (inactive). Besides, the GI50 in the assay on HT-29 is 3.58 µM (inactive); in the assay on LOX IMVI it was 4.37 µM (inactive); in the assay on MOLT-4, 0.415 µM (active); in the assay on OVCAR-8 it was 3.2 µM (inactive); in the assay with NCI-H522, 3.52 µM (inactive); with MDA-MB-231 it was 3.49 µM (inactive). Moreover, the GI50 with CAKI-1 was 3.13 µM (inactive); in the assay on HOP-62 it was 3.46 µM (inactive); in the assay with SK-MEL-28, 0.631 µM (active); with Malme-3M, 5.09 µM (inactive); with NCI-H226, 3.38 µM (inactive).
Regarding `O=C(NNC(=O)c1c(Cl)c(Cl)c(Cl)c(Cl)c1-c1nc2ccccc2[nH]1)c1ccc(Cl)cc1`, the GI50 is 46.3 µM (inactive) in the assay on HCT-116; 24.6 µM (inactive) with HOP-92; 46.9 µM (inactive) in the assay with ACHN; 42.5 µM (inactive) with DU-145; > 100 µM (inactive) with SK-OV-3; 38.1 µM (inactive) in the assay with KM12. For the same compound, the GI50 was 58.6 µM (inactive) with HT-29; 65.9 µM (inactive) in the assay on LOX IMVI; 38.9 µM (inactive) with MOLT-4; 66.1 µM (inactive) in the assay on OVCAR-8; 49.8 µM (inactive) in the assay on NCI-H522; 50.2 µM (inactive) in the assay on OVCAR-4. For the same compound, the GI50 in the assay with CAKI-1 was 40.6 µM (inactive); in the assay with HOP-62, 61.9 µM (inactive); with SK-MEL-28 it was 81.1 µM (inactive); in the assay with Malme-3M, 89.3 µM (inactive); with NCI-H226, 43.4 µM (inactive).
For the compound `CC1CC/C(=C\c2ccc(F)cc2)C2=C1C(c1ccc(F)cc1)N1C(=O)CSC1=N2` (configuration not stated), the GI50 in the assay with HCT-116 was 50 µM (inactive); with ACHN, > 100 µM (inactive); in the assay with DU-145 it was > 100 µM (inactive); in the assay on SK-OV-3, > 100 µM (inactive); in the assay with KM12, 35.7 µM (inactive); with HT-29, 23.2 µM (inactive). Also, the GI50 in the assay on LOX IMVI is 44 µM (inactive); with MOLT-4, 6.55 µM (inactive); in the assay with OVCAR-8, 69.7 µM (inactive); in the assay on MDA-MB-231 it was > 100 µM (inactive); in the assay on CAKI-1, > 100 µM (inactive); in the assay on SK-MEL-28, > 100 µM (inactive). Further, the GI50 in the assay on Malme-3M was > 100 µM (inactive); with NCI-H226 it was 53 µM (inactive).
Take `Cc1nc(N)c(N2CCN(S(N)(=O)=O)CC2)c(O)n1`: the GI50 with HCT-116, in the assay on ACHN, in the assay on DU-145, in the assay with HCC 2998, in the assay with KM12 and in the assay with HT-29 was > 100 µM (inactive) throughout. Further, the GI50 in the assay with LOX IMVI, in the assay with MOLT-4, with OVCAR-8, in the assay on NCI-H522, in the assay on OVCAR-4 and in the assay with MDA-MB-231 was > 100 µM (inactive) in each case. The GI50 in the assay on HOP-62, in the assay on SK-MEL-28, with Malme-3M and in the assay on NCI-H226 was > 100 µM (inactive) throughout.
Turning to `CC1C[C@]2(C[C@@H](C)C(=O)O2)O[C@@H]2CC3(C)[C@@H]4CCC5C(C)(C)OC(=O)C[C@H]6OO[C@]4(CC[C@]3(C)C12)CC56O` (some centres not stated), the GI50 in the assay on ACHN, in the assay on HCC 2998, with SK-OV-3, in the assay on HT-29, in the assay on LOX IMVI and with OVCAR-8 was > 100 µM (inactive) throughout. The GI50 with NCI-H522, in the assay with OVCAR-4, in the assay on SK-MEL-28, with Malme-3M and with NCI-H226 was > 100 µM (inactive) throughout.
Regarding `CCc1cc2c(cc1O)CC[C@@H]1[C@@H]2CC[C@]2(C)[C@@H](O)CC[C@@H]12`, the GI50 in the assay with ACHN is 8.81 µM (inactive); in the assay with HCC 2998 it was 10.2 µM (inactive); in the assay with SK-OV-3, 11.7 µM (inactive); in the assay on KM12 it was 6.19 µM (inactive); with HT-29, 15 µM (inactive); in the assay with LOX IMVI, 9.75 µM (inactive). Besides, the GI50 with MOLT-4 was 5 µM (inactive); in the assay on OVCAR-8, 7.24 µM (inactive); in the assay with NCI-H522 it was 8.81 µM (inactive); with OVCAR-4, 12.3 µM (inactive); in the assay on MDA-MB-231 it was 7.93 µM (inactive); in the assay on CAKI-1, 4.67 µM (inactive). Moreover, the GI50 was 6.14 µM (inactive) in the assay with HOP-62, 5.14 µM (inactive) in the assay on SK-MEL-28, 2.97 µM (inactive) in the assay with Malme-3M and 12.2 µM (inactive) in the assay on NCI-H226.
